The values below come from paper PMC4104029, “Mechanism of Action of Compound-13: An α1-Selective Small Molecule Activator of AMPK” (Chemistry & Biology, 2014).

The experiment concerns the target T1, AMPKα1 complexes in primary hepatocytes (Mus musculus, UniProt O54950+Q5EG47).
T1 construct: AMPKα1 or AMPKα2 complexes were immunoprecipitated from hepatocyte extracts; endogenous in cells; host or cells: primary mouse hepatocytes
Put plainly: Isoform-specific immunoprecipitate kinase assay from hepatocytes. Format: cell-based. Particulars: 1 hr; washed immunoprecipitates. Here is the method: Figure 4 The C2 Prodrug, C13, Potently Activates AMPK in Mouse Primary Hepatocytes (A) Isolated mouse hepatocytes were incubated with vehicle or the indicated concentrations of C13 for 1 hr. AICAR (0.5 mM) was included as a positive control. Cell lysates were analyzed using western blotting with the indicated antibodies. (B) AMPKα1 or AMPKα2 complexes were immunoprecipitated from hepatocyte extracts prepared as described in (A) and assayed for kinase activity using 0.2 mM AMARA and 0.1 mM ATP. Results are expressed as the mean Pi incorporated in picomoles per minute-milligram ± SD. […] Lysates were analyzed using western blotting with the indicated antibodies. (D) Mouse hepatocytes were treated with the indicated compounds for 1 hr, and adenine nucleotide ratios were determined using capillary electrophoresis of perchloric acid extracts. […] Lysates were analyzed using western blotting with the indicated antibodies. […] Lysates were analyzed using western blotting with the indicated antibodies. […]
AMPK phosphotransferase activity was assayed in reactions (50 μl) containing 50 mM HEPES, pH 7.4, 10 mM MgCl2, 0.1 mM EGTA, 1 mM DTT, 0.01% BRIJ-35, 100 μM [γ-^32P]ATP (∼250 CPM⋅pmol^−1) and 200 μM AMARA (AMARAASAAALARRR). […] Washed filters were dried and [^32P] incorporation determined by Cherenkov counting. […]

T1 sequence (Q5EG47 whole entry): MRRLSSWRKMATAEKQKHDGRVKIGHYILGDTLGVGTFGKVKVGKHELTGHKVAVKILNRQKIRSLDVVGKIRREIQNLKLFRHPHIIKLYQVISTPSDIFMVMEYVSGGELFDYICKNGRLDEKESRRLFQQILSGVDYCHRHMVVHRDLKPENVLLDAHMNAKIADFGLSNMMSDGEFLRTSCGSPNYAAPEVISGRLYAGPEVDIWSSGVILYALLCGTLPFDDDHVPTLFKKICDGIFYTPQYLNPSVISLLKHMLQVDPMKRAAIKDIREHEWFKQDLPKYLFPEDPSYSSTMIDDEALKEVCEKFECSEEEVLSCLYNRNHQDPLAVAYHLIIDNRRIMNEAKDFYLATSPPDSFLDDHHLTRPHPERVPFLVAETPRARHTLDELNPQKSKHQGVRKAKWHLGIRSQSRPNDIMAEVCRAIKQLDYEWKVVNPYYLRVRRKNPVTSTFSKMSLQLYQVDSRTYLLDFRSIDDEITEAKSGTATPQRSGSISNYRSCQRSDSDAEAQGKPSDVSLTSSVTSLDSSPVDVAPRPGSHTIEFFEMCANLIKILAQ
T1 sequence (Q9R078 2-270 partner limits assumed): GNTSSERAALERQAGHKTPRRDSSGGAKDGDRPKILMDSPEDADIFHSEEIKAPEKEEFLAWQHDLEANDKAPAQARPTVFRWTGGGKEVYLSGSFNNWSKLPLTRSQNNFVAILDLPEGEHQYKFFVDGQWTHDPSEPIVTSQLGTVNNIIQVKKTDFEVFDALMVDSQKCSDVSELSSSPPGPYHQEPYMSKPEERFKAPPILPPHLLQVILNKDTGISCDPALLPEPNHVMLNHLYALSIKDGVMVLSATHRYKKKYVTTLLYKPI
T1 sequence (O54950 whole entry): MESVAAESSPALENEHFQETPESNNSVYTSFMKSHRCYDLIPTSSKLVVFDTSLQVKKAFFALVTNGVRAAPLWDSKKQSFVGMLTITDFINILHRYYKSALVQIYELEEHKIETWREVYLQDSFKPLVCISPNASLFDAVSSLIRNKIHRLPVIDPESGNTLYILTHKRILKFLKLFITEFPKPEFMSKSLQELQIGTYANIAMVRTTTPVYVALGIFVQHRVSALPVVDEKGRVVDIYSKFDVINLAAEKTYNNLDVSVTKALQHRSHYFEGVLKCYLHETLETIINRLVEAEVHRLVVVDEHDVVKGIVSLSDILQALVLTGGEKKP

With `CC(C)C(=O)OCOP(=O)(OCOC(=O)C(C)C)c1ccc(C2=NOC(=O)C2)o1` [Compound C13], the “concentration at which complexes were stimulated” value is 3 µM.
